# Results reported in US20050085463A1 (priority 2003, published 2005).
# Columns and labels:
# α1 receptors = test: Ligand binding screen at 10 μM
# M3 receptors = M3 receptors (Homo sapiens, UniProt P20309); test: Ligand binding screen at 10 μM
# [1] = system: MK-801-induced hyperactivity; test: Reversal of MK-801-induced hyperactivity; assay type: in vivo, Non-Swiss Albino (NSA) mice
# Text: Clinically effective antipsychotic drugs can block the behavioral effects of non-competitive N-methyl-D-aspartate […], such as MK-801. […]. […]
# [2] = system: amphetamine-induced hyperactivity; test: Reversal of amphetamine-induced hyperactivity; assay type: in vivo, Non-Swiss Albino (NSA) mice; conditions: s.c. or p.o.
# [3] = Pharmacokinetics after single i.v. or oral dose in rats; assay type: in vivo, Sprague-Dawley rats; conditions: rat; for bioavailability: read-out: BA (oral bioavailability)
# [4] = Brain-to-plasma ratio in rats; assay type: in vivo; conditions: male, Sprague-Dawley, rat, po, 10 mg/kg, brain-to-plasma ratio of NDMC
# Procedure: The pharmacokinetics of clozapine and N-desmethylclozapine (NDMC) was evaluated in rats after intravenous (i.v.) and oral (p.o.) dosing. Cmax, Tmax and bioavailability after p.o. dosing and the volume of distribution (Vss), terminal plasma half-life (T1/2) and clearance (CLs) after i.v. dosing were determined. […] Animals were euthanised and brain and plasma samples obtained at 60 or 240 minutes post-dose, depending on study group. The levels of NDMC and clozapine were measured in each sample.
# The pharmacokinetic study described above included an initial assessment of the distribution of NDMC into brain.
# [5] = Pharmacokinetics after i.v. or oral dose in dogs; assay type: in vivo, beagle dogs; conditions: dog; for concentration at 2 min / concentration at 5 min / concentration at 10 min / concentration at 30 min / concentration at 60 min / concentration at 120 min / concentration at 180 min / concentration at 240 min / concentration at 360 min: plasma; for bioavailability: NDMC p.o. 10 mg/kg vs i.v. 1 mg/kg, read-out: BA (oral bioavailability)
# [6] = target: T1, α1A (Alpha 1A) adrenergic receptor (Homo sapiens, UniProt P35348); conditions: R-SAT; nr = no significant antagonist or inverse agonist activity up to 1 μM; nr* = nr but significant agonist activity
# T1 sequence (P35348 1-466): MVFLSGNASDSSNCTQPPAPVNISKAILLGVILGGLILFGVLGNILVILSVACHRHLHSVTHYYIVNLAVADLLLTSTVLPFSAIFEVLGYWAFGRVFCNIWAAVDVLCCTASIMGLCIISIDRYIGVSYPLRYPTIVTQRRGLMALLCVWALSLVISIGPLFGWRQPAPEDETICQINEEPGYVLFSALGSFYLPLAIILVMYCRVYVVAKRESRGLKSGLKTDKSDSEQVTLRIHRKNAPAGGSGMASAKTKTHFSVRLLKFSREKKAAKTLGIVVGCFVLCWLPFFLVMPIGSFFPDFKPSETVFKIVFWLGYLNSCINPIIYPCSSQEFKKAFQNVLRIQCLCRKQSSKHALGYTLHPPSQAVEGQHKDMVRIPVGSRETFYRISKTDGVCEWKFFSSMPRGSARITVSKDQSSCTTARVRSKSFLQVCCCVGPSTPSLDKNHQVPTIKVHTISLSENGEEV
# cFOS expression in brain = conditions: s.c. 7.5 and 30.0 mg/kg; two hours; western blotting (Young et al.); cited from earlier work
# [7] = male, Sprague-Dawley, plasma, iv, 1 mg/kg, Plasma concentration after NDMC administration, NDMC i.v. 1 mg/kg, mean ± SD
# [8] = male, Sprague-Dawley, plasma, iv, 1 mg/kg, Plasma concentration of compound measured after clozapine administration, clozapine i.v. 1 mg/kg, mean ± SD
# [9] = male, Sprague-Dawley, plasma, po, 10 mg/kg, Plasma concentration after NDMC administration, NDMC p.o. 10 mg/kg, mean ± SD, two p.o. groups
# [10] = male, Sprague-Dawley, plasma, po, 10 mg/kg, Plasma concentration after NDMC administration, NDMC p.o. 10 mg/kg, mean ± SD
# [11] = male, Sprague-Dawley, plasma, po, 10 mg/kg, Plasma concentration of compound measured after clozapine administration, clozapine p.o. 10 mg/kg, mean ± SD
# [12] = NDMC p.o. 10 mg/kg, mean ± SD, two p.o. groups, 10 mg/kg
# [13] = beagle, iv, 1 mg/kg, Plasma concentration after NDMC administration, NDMC i.v. 1 mg/kg
# [14] = beagle, iv, 1 mg/kg, Plasma concentration of compound measured after clozapine administration, clozapine i.v. 1 mg/kg
# [15] = beagle, po, 10 mg/kg, Plasma concentration after NDMC administration, NDMC p.o. 10 mg/kg
# [16] = beagle, po, 10 mg/kg, Plasma concentration of compound measured after clozapine administration, clozapine p.o. 10 mg/kg
# Chain of M3 receptors (P20309 whole entry): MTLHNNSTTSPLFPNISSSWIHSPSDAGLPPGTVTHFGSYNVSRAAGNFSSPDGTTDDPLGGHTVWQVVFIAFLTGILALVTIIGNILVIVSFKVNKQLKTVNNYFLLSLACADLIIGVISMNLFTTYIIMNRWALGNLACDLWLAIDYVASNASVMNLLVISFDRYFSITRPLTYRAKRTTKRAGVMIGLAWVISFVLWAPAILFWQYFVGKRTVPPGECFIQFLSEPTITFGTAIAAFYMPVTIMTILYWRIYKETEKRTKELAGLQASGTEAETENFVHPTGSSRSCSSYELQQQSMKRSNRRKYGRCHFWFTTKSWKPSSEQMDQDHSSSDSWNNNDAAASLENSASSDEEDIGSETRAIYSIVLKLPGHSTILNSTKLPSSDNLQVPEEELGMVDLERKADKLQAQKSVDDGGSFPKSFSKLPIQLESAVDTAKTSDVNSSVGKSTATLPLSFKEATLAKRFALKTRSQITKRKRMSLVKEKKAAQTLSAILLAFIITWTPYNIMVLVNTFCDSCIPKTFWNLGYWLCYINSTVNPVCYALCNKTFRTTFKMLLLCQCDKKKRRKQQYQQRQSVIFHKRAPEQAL
compound,measurement,setting,value
"Clc1ccc2c(c1)N=C(N1CCNCC1)c1ccccc1N2 [NDMC, 8-chloro-11-(1-piperazinyl)-5H-dibenzo [b,e][1,4] diazepine]","inhibition of binding, α1",α1 receptors,≥ 90%
same,inhibition at 10 µM,M3 receptors,≥ 90%
same,"minimal effective dose, attenuation of MK-801-induced hyperactivity",[1]; p.o.,10 mg/kg
same,"minimal effective dose, attenuation of MK-801-induced hyperactivity",[1]; s.c.,1 mg/kg
same,dose that attenuated amphetamine-induced hyperactivity,[2],10 mg/kg
same,half-life,"[3]; male, Sprague-Dawley, plasma, iv, 1 mg/kg",0.655 h
same,concentration at 10 min,[3]; [7],0.54 ± 0.046 µg/mL
same,concentration at 30 min,[3]; [7],0.276 ± 0.03 µg/mL
same,concentration at 60 min,[3]; [7],0.126 ± 0.038 µg/mL
same,concentration at 120 min,[3]; [7],0.0337 ± 0.0114 µg/mL
same,concentration at 180 min,[3]; [7],0.0117 ± 0.0038 µg/mL
same,concentration at 240 min,[3]; [7],0.0053 ± 0.0003 µg/mL
same,concentration at 30 min,[3]; [8],0.0028 ± 0.0012 µg/mL
same,concentration at 60 min,[3]; [8],0.004 ± 0.0015 µg/mL
same,concentration at 120 min,[3]; [8],0.0023 ± 0.001 µg/mL
same,concentration at 180 min,[3]; [8],0.0007 ± 0.0001 µg/mL
same,concentration at 240 min,[3]; [8],0.0008 ± 0.0006 µg/mL
same,AUC,"[3]; male, Sprague-Dawley, plasma, iv, 1 mg/kg, after NDMC i.v. 1 mg/kg, read-out: Average AUC (converted)",0.456 µg·h/mL
same,Cmax,"[3]; male, Sprague-Dawley, plasma, iv, 1 mg/kg, after NDMC i.v. 1 mg/kg, read-out: Cmax",0.756 µg/mL
same,Tmax,"[3]; male, Sprague-Dawley, plasma, iv, 1 mg/kg, after NDMC i.v. 1 mg/kg, read-out: Tmax",0 h
same,AUC,"[3]; male, Sprague-Dawley, plasma, iv, 1 mg/kg, after clozapine i.v. 1 mg/kg, read-out: Average AUC of compound measured (converted)",0.00816 µg·h/mL
same,Cmax,"[3]; male, Sprague-Dawley, plasma, iv, 1 mg/kg, after clozapine i.v. 1 mg/kg, read-out: Cmax of compound measured",0.00399 µg/mL
same,Tmax,"[3]; male, Sprague-Dawley, plasma, iv, 1 mg/kg, after clozapine i.v. 1 mg/kg, read-out: Tmax of compound measured (converted)",1 h
same,Vd,"[3]; male, Sprague-Dawley, plasma, iv, 1 mg/kg, read-out: Vss",1.47 L/kg
same,concentration at 10 min,[3]; [9],0.305 ± 0.101 µg/mL
same,concentration at 30 min,[3]; [9],0.582 ± 0.265 µg/mL
same,concentration at 60 min,[3]; [9],0.481 ± 0.181 µg/mL
same,concentration at 120 min,[3]; [10],0.227 ± 0.075 µg/mL
same,concentration at 180 min,[3]; [10],0.17 ± 0.026 µg/mL
same,concentration at 240 min,[3]; [10],0.122 ± 0.054 µg/mL
same,concentration at 120 min,[3]; [11],0.0425 ± 0.0151 µg/mL
same,concentration at 180 min,[3]; [11],0.0134 ± 0.00254 µg/mL
same,concentration at 240 min,[3]; [11],0.0071 ± 0.0005 µg/mL
same,AUC,"[3]; male, Sprague-Dawley, plasma, po, 10 mg/kg, after NDMC p.o. 10 mg/kg, read-out: Average AUC (converted)",1.14 µg·h/mL
same,AUC,"[3]; male, Sprague-Dawley, plasma, po, 10 mg/kg, after clozapine p.o. 10 mg/kg, read-out: Average AUC of compound measured (converted)",0.27 µg·h/mL
same,Tmax,"[3]; male, Sprague-Dawley, plasma, po, 10 mg/kg, after clozapine p.o. 10 mg/kg, read-out: Tmax of compound measured (converted)",0.5 h
same,bioavailability,"[3]; male, Sprague-Dawley, serum, oral, 10 mg/kg",~25%
same,Cmax,"[3]; male, Sprague-Dawley, serum, po, 10 mg/kg, after NDMC p.o. 10 mg/kg, read-out: Cmax",0.582 µg/mL
same,Tmax,"[3]; male, Sprague-Dawley, serum, po, 10 mg/kg, after NDMC p.o. 10 mg/kg, read-out: Tmax",≤ 0.5 h
same,Cmax,"[3]; male, Sprague-Dawley, serum, po, 10 mg/kg, after clozapine p.o. 10 mg/kg, read-out: Cmax of compound measured",0.194 µg/mL
same,bioavailability,"[3]; male, Sprague-Dawley, serum, po, 10 mg/kg",25%
same,"Plasma concentration after NDMC administration, 10 min",[3]; [12],0.277 ± 0.057 µg/mL
same,"Plasma concentration after NDMC administration, 30 min",[3]; [12],0.576 ± 0.161 µg/mL
same,"Plasma concentration after NDMC administration, 60 min",[3]; [12],0.614 ± 0.06 µg/mL
same,CLs,[3]; after NDMC i.v. 1 mg/kg,2.17 L/h/kg
same,Kp at 1 h,[4]; 60 minutes after oral 10 mg/kg NDMC,0.36 ± 0.16
same,Kp at 1 h,[4]; 60 minutes after oral clozapine,0.26 ± 0.07
same,Kp at 4 h,[4]; 240 minutes after oral 10 mg/kg NDMC,1 ± 0.4
same,Kp at 4 h,[4]; 240 minutes after oral clozapine,2.6 ± 0.8
same,concentration at 2 min,[5]; [13],0.182 µg/mL
same,concentration at 5 min,[5]; [13],0.073 ± 0.022 µg/mL
same,concentration at 10 min,[5]; [13],0.05 ± 0.01 µg/mL
same,concentration at 30 min,[5]; [13],0.035 ± 0.002 µg/mL
same,concentration at 60 min,[5]; [13],0.032 ± 0.006 µg/mL
same,concentration at 120 min,[5]; [13],0.028 ± 0.004 µg/mL
same,concentration at 180 min,[5]; [13],0.027 ± 0.007 µg/mL
same,concentration at 240 min,[5]; [13],0.027 ± 0.004 µg/mL
same,concentration at 2 min,[5]; [14],0.00054 ± 0.00012 µg/mL
same,concentration at 5 min,[5]; [14],0.00047 ± 6e-05 µg/mL
same,concentration at 10 min,[5]; [14],0.00064 ± 0.00026 µg/mL
same,concentration at 30 min,[5]; [14],0.00172 ± 0.00075 µg/mL
same,concentration at 60 min,[5]; [14],0.00355 ± 0.00103 µg/mL
same,concentration at 120 min,[5]; [14],0.00431 ± 0.00134 µg/mL
same,concentration at 180 min,[5]; [14],0.00489 ± 0.00141 µg/mL
same,concentration at 240 min,[5]; [14],0.00444 ± 0.00131 µg/mL
same,concentration at 10 min,[5]; [15],0.001 µg/mL
same,concentration at 30 min,[5]; [15],0.014 ± 0.012 µg/mL
same,concentration at 60 min,[5]; [15],0.067 ± 0.037 µg/mL
same,concentration at 120 min,[5]; [15],0.155 ± 0.095 µg/mL
same,concentration at 180 min,[5]; [15],0.249 ± 0.044 µg/mL
same,concentration at 240 min,[5]; [15],0.274 ± 0.044 µg/mL
same,concentration at 360 min,[5]; [15],0.261 µg/mL
same,concentration at 10 min,[5]; [16],0 µg/mL
same,concentration at 30 min,[5]; [16],0.00245 µg/mL
same,concentration at 60 min,[5]; [16],0.0254 µg/mL
same,concentration at 120 min,[5]; [16],0.0058 µg/mL
same,concentration at 180 min,[5]; [16],0.0103 µg/mL
same,concentration at 240 min,[5]; [16],0.0192 µg/mL
same,concentration at 360 min,[5]; [16],0.0467 µg/mL
same,AUC,"[5]; beagle, serum, iv, 1 mg/kg",0.135 ± 0.0213 µg·h/mL
same,Cmax,"[5]; beagle, serum, iv, 1 mg/kg",0.353 µg/mL
same,Vd,"[5]; beagle, serum, iv, 1 mg/kg",28.2 ± 4.92 L/kg
same,half-life,"[5]; beagle, serum, iv, 1 mg/kg",13.2 ± 7 h
same,bioavailability,"[5]; beagle, serum, oral, 10 mg/kg",~44%
same,AUC,"[5]; beagle, serum, po, 10 mg/kg",0.598 ± 0.112 µg·h/mL
same,Cmax,"[5]; beagle, serum, po, 10 mg/kg",0.286 µg/mL
same,Tmax,"[5]; beagle, serum, po, 10 mg/kg",3.3 ± 1.2 h
same,bioavailability,"[5]; beagle, serum, po, 10 mg/kg",44%
same,time by which Cmax was achieved,[5]; after NDMC p.o. 10 mg/kg,≤ 3.3 h
same,peak NDMC levels as share of peak clozapine levels,[5]; after clozapine,approximately 16%
same,"pKi α1A, competitive antagonist",[6],7.3 ± 0.1
same,cFOS expression in brain regions,cFOS expression in brain,"induction of cFOS expression in the pre-frontal cortex and nucleus accumbens, but not in striatum"
